pIC50: −log10 of the molar value.
Tests used:
Protein smoothened [1] = molecular target: T1, Protein smoothened (Homo sapiens, UniProt Q99835); experiment: Displacement of Bodipy-labelled cyclopamine from Smo expressed in COS-1 cells in presence of 2% FBS after 4 to 6 hrs by FACS flow cytometric analysis; format: cell-based
Shh Light II = experiment: Inhibition of Shh signaling in mouse Shh-light2 cells by Gli-dependent firefly luciferase reporter gene assay; format: functional, cell-based
Protein smoothened [2] = molecular target: T1, Protein smoothened; experiment: Inhibition of Bodipy-labelled cyclopamine binding to Smo expressed in COS-1 cells in presence of 20% NHS after 4 to 6 hrs by FACS flow cytometric analysis; format: cell-based

T1 sequence (Q99835 whole entry): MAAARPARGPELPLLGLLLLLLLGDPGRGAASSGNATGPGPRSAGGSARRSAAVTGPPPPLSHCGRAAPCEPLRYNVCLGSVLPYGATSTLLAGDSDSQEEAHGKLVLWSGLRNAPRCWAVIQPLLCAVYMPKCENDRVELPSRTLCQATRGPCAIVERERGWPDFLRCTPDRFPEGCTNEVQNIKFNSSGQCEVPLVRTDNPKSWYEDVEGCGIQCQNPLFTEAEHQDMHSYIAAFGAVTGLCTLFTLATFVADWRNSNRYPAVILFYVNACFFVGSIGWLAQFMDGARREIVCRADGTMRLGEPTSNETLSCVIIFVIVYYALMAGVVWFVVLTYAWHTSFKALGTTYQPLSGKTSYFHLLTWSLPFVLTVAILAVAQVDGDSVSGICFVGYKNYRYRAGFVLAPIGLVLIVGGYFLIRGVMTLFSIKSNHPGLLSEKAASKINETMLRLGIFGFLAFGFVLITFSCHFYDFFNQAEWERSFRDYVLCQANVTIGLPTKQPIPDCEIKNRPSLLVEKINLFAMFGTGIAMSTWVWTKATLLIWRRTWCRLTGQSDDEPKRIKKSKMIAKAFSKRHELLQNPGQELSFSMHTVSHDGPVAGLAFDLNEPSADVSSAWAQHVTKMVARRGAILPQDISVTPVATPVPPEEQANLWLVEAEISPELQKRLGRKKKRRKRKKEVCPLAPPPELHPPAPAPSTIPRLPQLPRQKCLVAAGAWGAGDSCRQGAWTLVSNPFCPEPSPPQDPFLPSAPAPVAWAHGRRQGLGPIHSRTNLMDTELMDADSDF

| SMILES | pIC50 (Protein smoothened [1]) | pIC50 (Shh Light II) | pIC50 (Protein smoothened [2]) |
| --- | --- | --- | --- |
| O=C(Nc1ccccc1Cl)N1CCC(c2nc(-c3ccc4ccncc4n3)no2)CC1 | < 5.60 |  |  |
| COc1cccc(NC(=O)N2CCC(c3nc(-c4ccc5ccccc5n4)no3)CC2)c1 | 6.66 | 6.39 |  |
| c1ccc2nc(-c3noc(C4CCN(CC5CCCCC5)CC4)n3)ccc2c1 | < 5.60 |  |  |
| O=C(Nc1ccccc1Cl)N1CCC(c2nc(-c3cnc4ccccc4n3)no2)CC1 | 5.96 |  |  |
| Cn1c(-c2noc(C3CCN(C(=O)NC4CCS(=O)(=O)CC4)CC3)n2)nc2ccccc21 | 6.16 | 6.46 | 6.12 |
| O=C(Nc1ncccc1Cl)N1CCC(c2nc(-c3ccc4ccccc4n3)no2)CC1 | < 5.60 | 5.55 |  |
| C[C@@H]1C[C@H](c2nc(-c3ccc4ccccc4n3)no2)CCN1C(=O)Nc1ccccc1Cl | 6.21 | 5.62 |  |
| COc1ccc2nc(-c3noc(C4CCN(C(=O)Nc5ccccc5Cl)CC4)n3)ccc2c1 | 5.74 |  |  |
| COc1ccccc1N(C)C(=O)N1CCC(c2nc(-c3ccc4ccccc4n3)no2)CC1 | 5.85 | 5.51 |  |
| C[C@H]1C[C@H](c2nc(-c3ccc4ccccc4n3)no2)CCN1C(=O)Nc1ccccc1Cl | 6.19 | 6.05 |  |
| O=C(NC1CCNCC1)N1CCC(c2nc(-c3ccc4ccccc4n3)no2)CC1 | 5.54 | 5.60 | 5.43 |
| COc1ccccc1NC(=O)N1CCC(c2nc(-c3ccccc3C)no2)CC1 | < 5.60 |  |  |
| O=C(OC1CCCCC1)N1CCC(c2nc(-c3ccc4ccccc4n3)no2)CC1 | 6.55 | 6.24 |  |
| O=C(Nc1ccccc1C(F)(F)F)N1CCC(c2nc(-c3ccc4ccccc4n3)no2)CC1 | 6.47 | 6.15 |  |
| N#Cc1ccc(Cl)c(NC(=O)N2CCC(c3nc(-c4ccc5ccccc5n4)no3)CC2)c1 | 6.49 |  | < 5.60 |
| O=C(Nc1cnccc1Cl)N1CCC(c2nc(-c3ccc4ccccc4n3)no2)CC1 | 5.96 | 5.70 |  |
| O=C(NC1CC[S+]([O-])CC1)N1CCC(c2nc(-c3ccc4ccccc4n3)no2)CC1 (configuration not stated) | 5.74 | 6.07 | 5.32 |
| CCNC(=O)N1CCC(c2nc(-c3ccc4ccccc4n3)no2)CC1 | < 5.60 |  |  |
| O=C(Nc1cccnc1Cl)N1CCC(c2nc(-c3ccc4ccccc4n3)no2)CC1 | 5.82 | 5.80 |  |
| O=C(Nc1ccccc1Cl)N1CCC(c2nc(-c3nccc4ccccc34)no2)CC1 | < 5.60 |  |  |
| O=C(Nc1ccccc1Cl)N1CCC(c2nc(-c3ncc4ccccc4n3)no2)CC1 | < 5.60 |  |  |
| CC(=O)N1CCC(NC(=O)N2CCC(c3nc(-c4ccc5ccccc5n4)no3)CC2)CC1 | 5.64 | 6.30 | 5.89 |
| COc1ccccc1NC(=O)N1CCC(c2nc(-c3ccccn3)no2)CC1 | < 5.60 |  |  |
| O=C(Nc1ccccc1Cl)N1CCC(c2nc(-c3ccc4cnccc4n3)no2)CC1 | 5.66 |  |  |

| SMILES | pIC50 (Protein smoothened [1]) | pIC50 (Shh Light II) | pIC50 (Protein smoothened [2]) |
| --- | --- | --- | --- |
| COc1cc(-c2noc(C3CCN(C(=O)Nc4ccccc4Cl)CC3)n2)nc2ccccc12 | < 5.60 |  | < 5.60 |
| COc1ccccc1NC(=O)N1CCC(c2nc(-c3cccnc3)no2)CC1 | < 5.60 |  |  |
| Cc1noc(C)c1NC(=O)N1CCC(c2nc(-c3ccc4ccccc4n3)no2)CC1 | 5.82 | 5.52 |  |
| CN1CCC(NC(=O)N2CCC(c3nc(-c4ccc5ccccc5n4)no3)CC2)CC1 | 5.47 | 5.49 |  |
| O=C(Nc1ccccc1Cl)N1CCC(c2nc(-c3cnc4ccccc4c3)no2)CC1 | < 5.60 |  |  |
| CC1(c2nc(-c3ccc4ccccc4n3)no2)CCN(C(=O)Nc2ccccc2Cl)CC1 | 5.22 | 5.60 |  |
| O=C(Nc1ccccc1Cl)N1CCC(O)(c2nc(-c3ccc4ccccc4n3)no2)CC1 | 5.68 | 5.89 |  |
| N#Cc1ccccc1NC(=O)N1CCC(c2nc(-c3ccc4ccccc4n3)no2)CC1 | 6.31 | 6.72 |  |
| O=C(CC1CCCCCC1)N1CCC(c2nc(-c3ccc4ccccc4n3)no2)CC1 | 6.00 | 6.08 |  |
| O=C(OCc1ccccc1)N1CCC(c2nc(-c3ccc4ccccc4n3)no2)CC1 | < 5.60 | < 5.60 |  |
| COc1ccccc1NC(=O)N1CCC(c2nc(-c3cnccn3)no2)CC1 | < 5.60 |  |  |
| COc1cccc2nc(-c3noc(C4CCN(C(=O)Nc5ccccc5Cl)CC4)n3)ccc12 | < 5.60 |  | < 5.60 |
| O=C(Nc1ccc(Cl)cc1)N1CCC(c2nc(-c3ccc4ccccc4n3)no2)CC1 | 6.33 |  |  |
| O=C(Nc1ccccc1Cl)N1CCC(c2nc(-c3ccccc3)no2)CC1 | < 5.60 |  |  |
| COc1ccccc1NC(=O)N1CCC(c2nc(-c3ccc4ccccc4n3)no2)CC1 | 6.74 | 6.39 |  |
| O=C(Nc1ccccc1)N1CCC(c2nc(-c3ccc4ccccc4n3)no2)CC1 | 6.32 |  |  |
| COc1ccccc1NC(=O)N1CCC(c2nc(-c3ccc4ccccc4c3)no2)CC1 | 5.66 |  |  |
| COc1ccccc1NC(=O)N1CCC(c2nc(-c3cc4ccccc4cn3)no2)CC1 | 6.12 |  |  |
| COc1ccccc1NC(=O)N1CCC(c2noc(-c3ccc4ccccc4n3)n2)CC1 | 4.82 | 5.62 |  |
| Cc1ccccc1NC(=O)N1CCC(c2nc(-c3ccc4ccccc4n3)no2)CC1 | 6.29 | 6.36 |  |
| COc1cc2ccccc2nc1-c1noc(C2CCN(C(=O)Nc3ccccc3Cl)CC2)n1 | < 5.60 |  | < 5.60 |
| COc1cccc2ccc(-c3noc(C4CCN(C(=O)Nc5ccccc5Cl)CC4)n3)nc12 | < 5.60 |  |  |
| O=C(c1ccccc1Cl)N1CCC(c2nc(-c3ccc4ccccc4n3)no2)CC1 | < 5.60 |  |  |
| Clc1ccccc1CN1CCC(c2nc(-c3ccc4ccccc4n3)no2)CC1 | < 5.60 |  |  |

| SMILES | pIC50 (Protein smoothened [1]) | pIC50 (Shh Light II) | pIC50 (Protein smoothened [2]) |
| --- | --- | --- | --- |
| CC(C)c1ccccc1NC(=O)N1CCC(c2nc(-c3ccc4ccccc4n3)no2)CC1 | 6.46 | 6.32 |  |
| COc1ccc2ccc(-c3noc(C4CCN(C(=O)Nc5ccccc5Cl)CC4)n3)nc2c1 | < 5.60 |  | < 5.60 |
| COc1ccccc1NC(=O)N1CCC(c2nc(-c3nccc4ccccc34)no2)CC1 | < 5.60 |  |  |
| Cn1c(-c2noc(N3CCN(C(=O)NC4CCC(F)(F)CC4)CC3)n2)nc2ccccc21 | 8.15 |  | 7.60 |
| O=C(Nc1cccc2cccnc12)N1CCC(c2nc(-c3ccc4ccccc4n3)no2)CC1 | 5.89 | 5.85 |  |
| O=C(Nc1ccccc1Cl)N1CCC(c2nc(-c3cnccn3)no2)CC1 | < 5.60 |  |  |
| O=C(Nc1ccccc1Cl)N1CCC(F)(c2nc(-c3ccc4ccccc4n3)no2)CC1 | 6.00 | 5.89 |  |
| CS(=O)(=O)c1ccc(Cl)c(NC(=O)N2CCC(c3nc(-c4ccc5ccccc5n4)no3)CC2)c1 | 5.92 |  | < 5.60 |
| N#Cc1ccc(NC(=O)N2CCC(c3nc(-c4ccc5ccccc5n4)no3)CC2)c(Cl)c1 | 5.72 |  |  |
| COc1ccccc1NC(=O)N1CCC(c2nc(-c3ccccc3)no2)CC1 | < 5.60 |  |  |
| COc1ccccc1NC(=O)N1CCC(c2nc(-c3cnc4ccccc4c3)no2)CC1 | 5.72 |  |  |
| O=C(NC1CCCC1)N1CCC(c2nc(-c3ccc4ccccc4n3)no2)CC1 | 6.38 | 6.20 |  |
| O=C(NCC1CCC1)N1CCC(c2nc(-c3ccc4ccccc4n3)no2)CC1 | 6.12 | 6.39 |  |
| O=C(NC1CCC(F)(F)CC1)N1CCC(c2nc(-c3ccc4ccccc4n3)no2)CC1 | 6.32 |  | 5.82 |
| O=C(Nc1ccccc1Cl)N1CCC(c2nc(-c3ncccn3)no2)CC1 | < 5.60 |  |  |
| O=C(N1CCC(c2nc(-c3ccc4ccccc4n3)no2)CC1)N1CCCc2ccccc21 | 6.17 | 5.64 |  |
| COc1ccccc1NC(=O)N1CCC(c2nc(-c3ncccn3)no2)CC1 | < 5.60 |  |  |
| O=C(NC1CCOCC1)N1CCC(c2nc(-c3ccc4ccccc4n3)no2)CC1 | 5.77 | 6.32 | 5.07 |
| CC1CN(C(=O)Nc2ccccc2Cl)CCC1c1nc(-c2ccc3ccccc3n2)no1 (mixture of isomers) | 6.10 | 6.17 |  |
| O=C(Nc1ccccc1Cl)N1CCC(c2nc(-c3cccnc3)no2)CC1 | < 5.60 |  |  |
| O=C(Nc1ccccc1Cl)N1CCC(c2nc(-c3ccccn3)no2)CC1 | < 5.60 |  |  |
| O=C(Nc1ccccc1Cl)N1CCC(c2nc(-c3ccc4ncccc4n3)no2)CC1 | < 5.60 |  |  |
| COc1ccccc1NC(=O)N1CCC(c2nc(-c3ccncc3)no2)CC1 | < 5.60 |  |  |
| COc1ccccc1OC(=O)N1CCC(c2nc(-c3ccc4ccccc4n3)no2)CC1 | 6.96 | 6.60 |  |
